According to patent publication US20150005281A1, “PYRIMIDINE-2,4-DIAMINE DERIVATIVES AS KINASE INHIBITORS” (Cellzome Limited, priority 2011, published 2015):

How the values were obtained:
Type in all cases: binding
JAK1 = target: T1, JAK1 (Homo sapiens, UniProt P23458); assay: Kinobeads assay with immunodetection, JAK1; settings: for IC50: Kinobeads assay, mixed Molt4/Ramos lysate, read-out: Inhibition values (IC50) JAK1
T1 construct: endogenous in cells; host or cells: Molt4 (ATCC CRL-1582) and Ramos (ATCC CRL-1596) cells; mixed lysate 1:2
T1 sequence (P23458 whole entry): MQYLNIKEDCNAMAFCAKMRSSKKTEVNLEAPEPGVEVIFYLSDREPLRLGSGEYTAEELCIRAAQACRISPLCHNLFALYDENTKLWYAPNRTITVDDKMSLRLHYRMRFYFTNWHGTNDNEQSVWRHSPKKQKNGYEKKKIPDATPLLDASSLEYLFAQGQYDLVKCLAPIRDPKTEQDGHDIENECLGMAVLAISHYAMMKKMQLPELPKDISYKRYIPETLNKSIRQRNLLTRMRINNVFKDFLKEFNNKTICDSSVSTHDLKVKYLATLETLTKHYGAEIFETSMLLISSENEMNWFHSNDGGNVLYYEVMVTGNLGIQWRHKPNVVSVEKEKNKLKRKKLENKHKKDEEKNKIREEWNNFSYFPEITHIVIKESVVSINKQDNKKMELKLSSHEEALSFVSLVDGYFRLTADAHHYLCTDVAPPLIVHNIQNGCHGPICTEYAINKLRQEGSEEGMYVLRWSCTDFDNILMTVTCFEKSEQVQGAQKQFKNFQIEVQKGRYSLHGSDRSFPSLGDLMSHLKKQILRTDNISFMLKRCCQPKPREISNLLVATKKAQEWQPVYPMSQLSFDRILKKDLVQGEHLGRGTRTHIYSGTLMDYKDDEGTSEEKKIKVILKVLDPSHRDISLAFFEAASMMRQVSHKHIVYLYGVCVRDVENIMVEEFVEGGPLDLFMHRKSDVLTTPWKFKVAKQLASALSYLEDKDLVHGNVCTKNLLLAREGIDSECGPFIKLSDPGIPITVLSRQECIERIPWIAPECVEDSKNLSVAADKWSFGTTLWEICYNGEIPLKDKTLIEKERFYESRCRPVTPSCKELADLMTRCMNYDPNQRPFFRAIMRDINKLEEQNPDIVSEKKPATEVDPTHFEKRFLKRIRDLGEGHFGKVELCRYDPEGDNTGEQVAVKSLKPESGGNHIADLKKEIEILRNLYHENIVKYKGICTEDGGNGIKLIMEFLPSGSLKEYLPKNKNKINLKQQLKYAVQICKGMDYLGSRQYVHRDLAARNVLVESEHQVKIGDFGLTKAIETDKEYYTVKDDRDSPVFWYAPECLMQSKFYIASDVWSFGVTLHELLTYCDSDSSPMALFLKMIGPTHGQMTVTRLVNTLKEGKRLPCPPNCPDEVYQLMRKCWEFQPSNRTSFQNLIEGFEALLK
Method in brief: (§1)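 Mixed Molt4/Ramos lysate (1:2, 10 mg/mL protein) incubated 3 h in the cold with compound (1:3 series from 5 mM DMSO stock) and immobilized aminopyrido-pyrimidine Kinobeads. Bead-bound JAK1, JAK2, JAK3 and TYK2 eluted and quantified by antibody dot blot (Odyssey), IC50 from dose-response curves.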

JAK2 = target: T2, JAK2 (Homo sapiens, UniProt O60674); assay: Kinobeads assay with immunodetection, JAK2; settings: mixed Molt4/Ramos lysate, read-out: Inhibition values (IC50) JAK2
T2 construct: endogenous in cells; host or cells: Molt4 (ATCC CRL-1582) and Ramos (ATCC CRL-1596) cells; mixed lysate 1:2
T2 sequence (O60674 whole entry): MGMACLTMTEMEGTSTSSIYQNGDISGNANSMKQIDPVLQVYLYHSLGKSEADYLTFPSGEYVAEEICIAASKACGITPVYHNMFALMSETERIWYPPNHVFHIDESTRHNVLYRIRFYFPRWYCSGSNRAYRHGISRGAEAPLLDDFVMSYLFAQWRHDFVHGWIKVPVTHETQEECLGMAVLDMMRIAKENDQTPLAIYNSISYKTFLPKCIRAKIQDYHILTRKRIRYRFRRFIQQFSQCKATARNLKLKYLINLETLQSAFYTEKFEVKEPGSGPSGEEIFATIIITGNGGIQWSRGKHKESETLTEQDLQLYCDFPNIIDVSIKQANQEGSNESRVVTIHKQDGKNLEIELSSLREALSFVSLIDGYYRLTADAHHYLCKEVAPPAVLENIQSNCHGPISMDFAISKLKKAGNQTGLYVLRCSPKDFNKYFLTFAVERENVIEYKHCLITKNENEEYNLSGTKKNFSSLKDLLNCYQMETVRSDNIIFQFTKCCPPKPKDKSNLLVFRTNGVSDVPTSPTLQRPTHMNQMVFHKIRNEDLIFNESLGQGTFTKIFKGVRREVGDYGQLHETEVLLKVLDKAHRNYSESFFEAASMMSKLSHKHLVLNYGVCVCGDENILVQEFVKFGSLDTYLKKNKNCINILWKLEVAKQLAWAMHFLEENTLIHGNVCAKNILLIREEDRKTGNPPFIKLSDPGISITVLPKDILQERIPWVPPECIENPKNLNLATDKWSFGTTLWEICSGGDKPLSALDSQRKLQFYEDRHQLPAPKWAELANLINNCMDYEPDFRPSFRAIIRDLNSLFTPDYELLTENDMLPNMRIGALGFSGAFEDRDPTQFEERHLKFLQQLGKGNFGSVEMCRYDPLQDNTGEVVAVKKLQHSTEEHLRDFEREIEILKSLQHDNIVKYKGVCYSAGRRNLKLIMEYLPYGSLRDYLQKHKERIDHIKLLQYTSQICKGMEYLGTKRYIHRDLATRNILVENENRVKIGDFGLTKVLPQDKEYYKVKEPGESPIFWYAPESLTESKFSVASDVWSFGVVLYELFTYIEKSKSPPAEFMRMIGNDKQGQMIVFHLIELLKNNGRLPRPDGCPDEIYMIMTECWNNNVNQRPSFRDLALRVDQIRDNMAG
Method in brief: as §1

JAK3 = target: T3, JAK3 (Homo sapiens, UniProt P52333); assay: Kinobeads assay with immunodetection, JAK3; settings: Kinobeads assay, mixed Molt4/Ramos lysate; read-out: Inhibition values (IC50) JAK3
T3 construct: endogenous in cells; host or cells: Molt4 (ATCC CRL-1582) and Ramos (ATCC CRL-1596) cells; mixed lysate 1:2
T3 sequence (P52333 1-1124): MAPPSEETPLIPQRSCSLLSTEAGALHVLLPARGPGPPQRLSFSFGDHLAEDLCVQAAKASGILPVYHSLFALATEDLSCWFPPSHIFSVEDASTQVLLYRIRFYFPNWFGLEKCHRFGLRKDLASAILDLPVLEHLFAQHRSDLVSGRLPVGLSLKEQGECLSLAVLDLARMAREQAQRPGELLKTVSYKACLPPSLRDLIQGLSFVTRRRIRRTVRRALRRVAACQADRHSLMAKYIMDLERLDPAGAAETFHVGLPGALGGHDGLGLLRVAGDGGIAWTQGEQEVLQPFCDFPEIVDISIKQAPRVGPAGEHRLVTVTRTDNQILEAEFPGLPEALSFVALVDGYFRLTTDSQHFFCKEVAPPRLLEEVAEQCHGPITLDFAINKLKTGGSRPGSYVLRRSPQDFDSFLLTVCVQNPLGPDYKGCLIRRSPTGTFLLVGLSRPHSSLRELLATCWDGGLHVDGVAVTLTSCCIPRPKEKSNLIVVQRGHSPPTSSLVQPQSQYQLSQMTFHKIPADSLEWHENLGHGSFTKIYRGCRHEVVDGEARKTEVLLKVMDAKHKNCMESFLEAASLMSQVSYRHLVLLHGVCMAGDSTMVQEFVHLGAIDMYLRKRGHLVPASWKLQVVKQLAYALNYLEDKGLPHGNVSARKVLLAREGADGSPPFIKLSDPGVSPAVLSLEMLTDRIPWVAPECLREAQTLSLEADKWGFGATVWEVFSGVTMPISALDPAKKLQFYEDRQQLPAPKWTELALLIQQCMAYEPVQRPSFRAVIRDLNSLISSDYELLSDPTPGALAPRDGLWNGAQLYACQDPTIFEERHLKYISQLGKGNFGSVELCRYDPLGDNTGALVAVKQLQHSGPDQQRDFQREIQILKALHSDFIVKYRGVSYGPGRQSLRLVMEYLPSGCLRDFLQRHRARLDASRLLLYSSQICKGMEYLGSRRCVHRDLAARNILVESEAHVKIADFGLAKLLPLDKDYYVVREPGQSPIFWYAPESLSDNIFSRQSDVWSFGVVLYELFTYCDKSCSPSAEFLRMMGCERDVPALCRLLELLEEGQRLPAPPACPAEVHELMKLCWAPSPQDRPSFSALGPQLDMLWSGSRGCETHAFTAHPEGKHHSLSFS
Method in brief: as §1

TYK2 = target: T4, TYK2 (Homo sapiens, UniProt P29597); assay: Kinobeads assay with immunodetection, TYK2; settings: for IC50: Kinobeads assay, mixed Molt4/Ramos lysate, read-out: Inhibition values (IC50) Tyk2
T4 construct: endogenous in cells; host or cells: Molt4 (ATCC CRL-1582) and Ramos (ATCC CRL-1596) cells; mixed lysate 1:2
T4 sequence (P29597 whole entry): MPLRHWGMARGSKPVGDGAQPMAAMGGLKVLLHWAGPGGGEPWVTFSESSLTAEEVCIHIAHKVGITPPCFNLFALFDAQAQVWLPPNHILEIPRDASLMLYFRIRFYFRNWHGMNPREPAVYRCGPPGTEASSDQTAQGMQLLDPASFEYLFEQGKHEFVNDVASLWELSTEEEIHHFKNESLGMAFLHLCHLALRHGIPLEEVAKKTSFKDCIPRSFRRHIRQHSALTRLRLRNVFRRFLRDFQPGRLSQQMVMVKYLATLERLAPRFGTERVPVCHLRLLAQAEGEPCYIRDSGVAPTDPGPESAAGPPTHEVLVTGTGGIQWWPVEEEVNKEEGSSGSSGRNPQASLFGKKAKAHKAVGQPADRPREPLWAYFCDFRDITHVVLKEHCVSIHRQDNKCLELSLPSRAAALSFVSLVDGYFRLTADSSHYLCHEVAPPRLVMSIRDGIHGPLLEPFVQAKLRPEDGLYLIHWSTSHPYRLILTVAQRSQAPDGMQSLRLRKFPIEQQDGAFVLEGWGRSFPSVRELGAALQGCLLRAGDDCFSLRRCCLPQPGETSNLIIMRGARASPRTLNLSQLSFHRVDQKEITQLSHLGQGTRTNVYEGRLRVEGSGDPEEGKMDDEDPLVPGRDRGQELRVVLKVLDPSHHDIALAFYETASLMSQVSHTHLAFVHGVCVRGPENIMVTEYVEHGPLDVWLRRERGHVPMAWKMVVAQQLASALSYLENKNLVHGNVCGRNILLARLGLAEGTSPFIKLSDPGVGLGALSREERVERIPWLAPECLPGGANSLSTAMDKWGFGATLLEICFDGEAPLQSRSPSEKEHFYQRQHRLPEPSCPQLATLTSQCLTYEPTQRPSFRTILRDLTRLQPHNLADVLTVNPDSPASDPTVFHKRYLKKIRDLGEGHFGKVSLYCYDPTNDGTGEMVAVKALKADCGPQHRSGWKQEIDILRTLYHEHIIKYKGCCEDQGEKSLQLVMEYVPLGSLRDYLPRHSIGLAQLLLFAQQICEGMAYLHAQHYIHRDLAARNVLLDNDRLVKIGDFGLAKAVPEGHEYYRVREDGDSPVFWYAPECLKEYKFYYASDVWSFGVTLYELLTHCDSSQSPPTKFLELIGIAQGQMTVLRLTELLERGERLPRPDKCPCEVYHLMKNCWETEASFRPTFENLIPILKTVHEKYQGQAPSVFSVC
Method in brief: as §1

SMILES: Cc1cnc(Nc2cnn(C)c2)nc1NC[C@@H]1CCCN1CCC#N [Example 106, (S)-3-(2-(((5-methyl-2-((1-methyl-1H-pyrazol-4-yl)amino)pyrimidin-4-yl)amino)methyl)pyrrolidin-1-yl)propanenitrile]
- IC50 (JAK1): < 0.1 µM
- IC50 (JAK2): 1 to 10 µM
- IC50 (JAK3): 0.1 to 1 µM
- IC50 (TYK2): < 0.1 µM
- Selectivity ratio over JAK2, Tyk2 (TYK2): Tyk2 = 38

SMILES: Cc1cnc(Nc2cnn(C)c2)nc1NC[C@H]1CCCN1CCS(C)(=O)=O [Example 107, (R)-5-methyl-N^2-(1-methyl-1H-pyrazol-4-yl)-N^4-((1-(2-(methylsulfonyl)ethyl)pyrrolidin-2-yl)methyl)pyrimidine-2,4-diamine]
- IC50 (JAK1): < 0.1 µM
- IC50 (JAK2): 0.1 to 1 µM
- IC50 (JAK3): < 0.1 µM
- IC50 (TYK2): < 0.1 µM
- Selectivity ratio over JAK2, Tyk2 (TYK2): Tyk2 = 67

SMILES: Cc1cnc(Nc2cnn(C)c2)nc1NC[C@H]1CCCN1CCC#N [Example 108, (R)-3-(2-(((5-methyl-2-((1-methyl-1H-pyrazol-4-yl)amino)pyrimidin-4-yl)amino)methyl)pyrrolidin-1-yl)propanenitrile]
- IC50 (JAK1): 0.1 to 1 µM
- IC50 (JAK2): 1 to 10 µM
- IC50 (JAK3): 0.1 to 1 µM
- IC50 (TYK2): < 0.1 µM
- Selectivity ratio over JAK2, Tyk2 (TYK2): Tyk2 = 80

SMILES: Cc1cnc(Nc2cnn(C)c2)nc1NC[C@H]1CCCN1C(=O)CC#N [Example 109, (R)-3-(2-(((5-methyl-2-((1-methyl-1H-pyrazol-4-yl)amino)pyrimidin-4-yl)amino)methyl)pyrrolidin-1-yl)-3-oxopropanenitrile]
- IC50 (JAK1): < 0.1 µM
- IC50 (JAK2): 0.1 to 1 µM
- IC50 (JAK3): 0.1 to 1 µM
- IC50 (TYK2): < 0.1 µM
- Selectivity ratio over JAK2, Tyk2 (TYK2): Tyk2 = 69

SMILES: Cn1cc(Nc2ncc(Cl)c(NC[C@@H]3C[C@H](F)CN3C(=O)CCC#N)n2)cn1 [Example 110, 4-((2S,4S)-2-(((5-chloro-2-((1-methyl-1H-pyrazol-4-yl)amino)pyrimidin-4-yl)amino)methyl)-4-fluoropyrrolidin-1-yl)-4-oxobutanenitrile]
- Selectivity ratio over JAK2, JAK1 (JAK1): JAK1 = 88
- IC50 (JAK1): < 0.1 µM
- IC50 (JAK2): 1 to 10 µM
- IC50 (JAK3): < 0.1 µM
- IC50 (TYK2): 0.1 to 1 µM

SMILES: Cc1cnc(Nc2cnn(C)c2)nc1NC[C@H]1CCN(C(=O)CCC#N)C1 [Example 111, (R)-4-(3-(((5-methyl-2-((1-methyl-1H-pyrazol-4-yl)amino)pyrimidin-4-yl)amino)methyl)pyrrolidin-1-yl)-4-oxobutanenitrile]
- Selectivity ratio over JAK2, JAK1 (JAK1): JAK1 = 55
- IC50 (JAK1): < 0.1 µM
- IC50 (JAK2): 1 to 10 µM
- IC50 (JAK3): 1 to 10 µM
- IC50 (TYK2): < 0.1 µM

SMILES: Cn1cc(Nc2ncc(F)c(NC[C@H]3CCCN3CCC#N)n2)cn1 [Example 112, (R)-3-(2-(((5-fluoro-2-((1-methyl-1H-pyrazol-4-yl)amino)pyrimidin-4-yl)amino)methyl)pyrrolidin-1-yl)propanenitrile]
- IC50 (JAK1): 0.1 to 1 µM
- IC50 (JAK2): 1 to 10 µM
- IC50 (JAK3): 0.1 to 1 µM
- IC50 (TYK2): < 0.1 µM
- Selectivity ratio over JAK2, Tyk2 (TYK2): Tyk2 = 53

SMILES: Cn1cc(Nc2ncc(F)c(NC[C@H]3CCCN3C(=O)CC#N)n2)cn1 [Example 113, (R)-3-(2-(((5-fluoro-2-((1-methyl-1H-pyrazol-4-yl)amino)pyrimidin-4-yl)amino)methyl)pyrrolidin-1-yl)-3-oxopropanenitrile]
- IC50 (JAK1): < 0.1 µM
- IC50 (JAK2): 1 to 10 µM
- IC50 (JAK3): 0.1 to 1 µM
- IC50 (TYK2): < 0.1 µM
- Selectivity ratio over JAK2, Tyk2 (TYK2): Tyk2 = 170

SMILES: Cn1cc(Nc2ncc(F)c(NC[C@H]3CCCN3C(=O)CCC#N)n2)cn1 [Example 114, (R)-4-(2-(((5-fluoro-2-((1-methyl-1H-pyrazol-4-yl)amino)pyrimidin-4-yl)amino)methyl)pyrrolidin-1-yl)-4-oxobutanenitrile]
- IC50 (JAK1): < 0.1 µM
- IC50 (JAK2): 1 to 10 µM
- IC50 (JAK3): 0.1 to 1 µM
- IC50 (TYK2): < 0.1 µM
- Selectivity ratio over JAK2, Tyk2 (TYK2): Tyk2 = 103

SMILES: Cn1cc(Nc2ncc(Cl)c(NC[C@H]3CCCN3C3CCS(=O)(=O)C3)n2)cn1 (stereo partly drawn) [Example 115, 3-((R)-2-(((5-chloro-2-((1-methyl-1H-pyrazol-4-yl)amino)pyrimidin-4-yl)amino)methyl)pyrrolidin-1-yl)tetrahydrothiophene 1,1-dioxide]
- IC50 (JAK1): < 0.1 µM
- IC50 (JAK2): 0.1 to 1 µM
- IC50 (JAK3): < 0.1 µM
- IC50 (TYK2): < 0.1 µM
- Selectivity ratio over JAK2, Tyk2 (TYK2): Tyk2 = 68

SMILES: Cc1cnc(Nc2cnn(CC(F)F)c2)nc1NC[C@H]1CCCN1CCS(C)(=O)=O [Example 116, (R)—N^2-(1-(2,2-difluoroethyl)-1H-pyrazol-4-yl)-5-methyl-N^4-((1-(2-(methylsulfonyl)ethyl)pyrrolidin-2-yl)methyl)pyrimidine-2,4-diamine]
- Selectivity ratio over JAK2, JAK1 (JAK1): JAK1 = 70
- IC50 (JAK1): < 0.1 µM
- IC50 (JAK2): 1 to 10 µM
- IC50 (JAK3): < 0.1 µM
- IC50 (TYK2): < 0.1 µM

SMILES: Cc1cnc(Nc2cnn(CC(F)F)c2)nc1NC[C@H]1CCCN1CCC#N [Example 117, (R)-3-(2-(((2-((1-(2,2-difluoroethyl)-1H-pyrazol-4-yl)amino)-5-methylpyrimidin-4-yl)amino)methyl)pyrrolidin-1-yl)propanenitrile]
- IC50 (JAK1): < 0.1 µM
- IC50 (JAK2): 1 to 10 µM
- IC50 (JAK3): < 0.1 µM
- IC50 (TYK2): < 0.1 µM
- Selectivity ratio over JAK2, Tyk2 (TYK2): Tyk2 = 140

SMILES: Cc1cnc(Nc2cnn(CC(F)F)c2)nc1NC[C@H]1CCCN1C(=O)CC#N [Example 118, (R)-3-(2-(((2-((1-(2,2-difluoroethyl)-1H-pyrazol-4-yl)amino)-5-methylpyrimidin-4-yl)amino)methyl)pyrrolidin-1-yl)-3-oxopropanenitrile]
- Selectivity ratio over JAK2, JAK1 (JAK1): JAK1 = 69
- IC50 (JAK1): < 0.1 µM
- IC50 (JAK2): 0.1 to 1 µM
- IC50 (JAK3): 0.1 to 1 µM
- IC50 (TYK2): < 0.1 µM

SMILES: Cn1cc(Nc2ncc(Cl)c(NC[C@@H]3CCCN3CCCS(C)(=O)=O)n2)cn1 [Example 119, (S)-5-chloro-N^2-(1-methyl-1H-pyrazol-4-yl)-N^4-((1-(3-(methylsulfonyl)propyl)pyrrolidin-2-yl)methyl)pyrimidine-2,4-diamine]
- Selectivity ratio over JAK2, JAK1 (JAK1): JAK1 = 68
- IC50 (JAK1): < 0.1 µM
- IC50 (JAK2): 1 to 10 µM
- IC50 (JAK3): 1 to 10 µM
- IC50 (TYK2): 0.1 to 1 µM

SMILES: Cc1cnc(Nc2cnn(CC(F)F)c2)nc1NC[C@@H]1C[C@H](F)CN1CCS(C)(=O)=O [Example 120, N^2-(1-(2,2-difluoroethyl)-1H-pyrazol-4-yl)-N^4-(((2S,4S)-4-fluoro-1-(2-(methylsulfonyl)ethyl)pyrrolidin-2-yl)methyl)-5-methylpyrimidine-2,4-diamine]
- Selectivity ratio over JAK2, JAK1 (JAK1): JAK1 = 81
- IC50 (JAK1): < 0.1 µM
- IC50 (JAK2): 1 to 10 µM
- IC50 (JAK3): 1 to 10 µM
- IC50 (TYK2): 0.1 to 1 µM

SMILES: Cc1cnc(Nc2cnn(CC(F)F)c2)nc1NC[C@@H]1C[C@H](F)CN1CCC#N [Example 121, 3-((2S,4S)-2-(((2-((1-(2,2-difluoroethyl)-1H-pyrazol-4-yl)amino)-5-methylpyrimidin-4-yl)amino)methyl)-4-fluoropyrrolidin-1-yl)propanenitrile]
- Selectivity ratio over JAK2, JAK1 (JAK1): JAK1 = 56
- IC50 (JAK1): < 0.1 µM
- IC50 (JAK2): 1 to 10 µM
- IC50 (JAK3): 0.1 to 1 µM
- IC50 (TYK2): < 0.1 µM

SMILES: Cc1cnc(Nc2cnn(CC(F)F)c2)nc1NC[C@@H]1C[C@H](F)CN1C(=O)CCC#N [Example 122, 4-((2S,4S)-2-(((2-((1-(2,2-difluoroethyl)-1H-pyrazol-4-yl)amino)-5-methylpyrimidin-4-yl)amino)methyl)-4-fluoropyrrolidin-1-yl)-4-oxobutanenitrile]
- Selectivity ratio over JAK2, JAK1 (JAK1): JAK1 = 194
- IC50 (JAK1): < 0.1 µM
- IC50 (JAK2): 1 to 10 µM
- IC50 (JAK3): 1 to 10 µM
- IC50 (TYK2): 0.1 to 1 µM

SMILES: Cc1cnc(Nc2cnn(CC(F)F)c2)nc1NC[C@@H]1CCCN1CCS(C)(=O)=O [Example 123, (S)—N^2-(1-(2,2-difluoroethyl)-1H-pyrazol-4-yl)-5-methyl-N^4-((1-(2-(methylsulfonyl)ethyl)pyrrolidin-2-yl)methyl)pyrimidine-2,4-diamine]
- Selectivity ratio over JAK2, JAK1 (JAK1): JAK1 = 182
- IC50 (JAK1): < 0.1 µM
- IC50 (JAK2): 1 to 10 µM
- IC50 (JAK3): 0.1 to 1 µM
- IC50 (TYK2): < 0.1 µM
